Data on 10 compounds can be found in PubChem BioAssay AID1259407 (Chemical Carcinogenesis Research Information System (CCRIS), 2018).

Active and inactive are the calls of the source. No rule for the calls is given here.

This data set deals with CCRIS mutagenicity, Ames/micronucleus/aberration tests. Briefly: CCRIS mutagenicity studies. Particulars: Test System: AMES SALMONELLA TYPHIMURIUM
[1] abbreviates: Strain/Indicator: TA98, Metabolic Activation: NONE, Method: PREINCUBATION
The mark [2] stands for this setting: Strain/Indicator: TA100, Metabolic Activation: NONE, Method: PREINCUBATION
[3] abbreviates: Strain/Indicator: TA100, Metabolic Activation: NONE, Method: STANDARD PLATE.
The mark [4] stands for this setting: Strain/Indicator: TA1535, Metabolic Activation: NONE, Method: PREINCUBATION
The mark [5] stands for this setting: Strain/Indicator: TA100, Metabolic Activation: RAT, LIVER, S-9, PHENOBARBITAL AND 5,6-BENZOFLAVONE, Method: PREINCUBATION
[6] abbreviates: Strain/Indicator: TA98, Metabolic Activation: RAT, LIVER, S-9, AROCLOR 1254, Method: PREINCUBATION
The mark [7] stands for this setting: Strain/Indicator: TA100, Metabolic Activation: RAT, LIVER, S-9, AROCLOR 1254, Method: PREINCUBATION

As for `OC(CCl)CCl`, the mutagenic call is, setting by setting: (Strain/Indicator: TA97, Metabolic Activation: HAMSTER, LIVER, S-9, AROCLOR 1254 (10%), Method: PREINCUBATION) “active; positive”; (Strain/Indicator: TA97, Metabolic Activation: NONE, Method: PREINCUBATION) “inactive; negative”; (Strain/Indicator: TA97, Metabolic Activation: RAT, LIVER, S-9, AROCLOR 1254 (10%), Method: PREINCUBATION) “inactive; negative”; (Strain/Indicator: TA98, Metabolic Activation: HAMSTER, LIVER, S-9, AROCLOR 1254 (10%), Method: PREINCUBATION) “active; positive”; under setting [1], “inactive; negative”; (Strain/Indicator: TA98, Metabolic Activation: RAT, LIVER, S-9, AROCLOR 1254 (10%), Method: PREINCUBATION) “inactive; negative”. Also, the mutagenic call runs as follows: (Strain/Indicator: TA100, Metabolic Activation: ADH AND NAD+ (5 OR 50 µL), Method: PREINCUBATION) “active; positive”; (Strain/Indicator: TA100, Metabolic Activation: HAMSTER, LIVER, S-9, AROCLOR 1254 (10%), Method: PREINCUBATION) “active; positive”; (Strain/Indicator: TA100, Metabolic Activation: MOUSE, LIVER, S-9, PHENOBARBITAL, Method: STANDARD PLATE) “active; positive”; under setting [2], “active; positive”; under setting [3], “active; positive”; (Strain/Indicator: TA100, Metabolic Activation: RAT, LIVER, S-9, AROCLOR 1254 (10%), Method: PREINCUBATION) “active; positive”. In addition, the mutagenic call is, setting by setting: (Strain/Indicator: TA100, Metabolic Activation: RAT, LIVER, S-9, AROCLOR 1254 (NAD+), Method: PREINCUBATION) “active; positive”; (Strain/Indicator: TA100, Metabolic Activation: RAT, LIVER, S-9, AROCLOR 1254 (NADP+), Method: PREINCUBATION) “active; positive”; (Strain/Indicator: TA100, Metabolic Activation: RAT, LIVER, S-9, PCB, Method: STANDARD PLATE) “active; positive”; (Strain/Indicator: TA100, Metabolic Activation: RAT, LIVER, S-9, PHENOBARBITAL, Method: STANDARD PLATE) “active; positive”; (Strain/Indicator: TA1535, Metabolic Activation: ADH AND NAD+ (50 µL), Method: PREINCUBATION) “active; positive”; (Strain/Indicator: TA1535, Metabolic Activation: HAMSTER, LIVER, S-9, AROCLOR 1254 (10%), Method: PREINCUBATION) “active; positive”. The mutagenic call runs as follows: under setting [4], “active; positive”; (Strain/Indicator: TA1535, Metabolic Activation: NONE, Method: STANDARD PLATE) “active; positive”; (Strain/Indicator: TA1535, Metabolic Activation: RAT, LIVER, S-9, AROCLOR 1254 (10%), Method: PREINCUBATION) “active; positive”; (Strain/Indicator: TA1535, Metabolic Activation: RAT, LIVER, S-9, AROCLOR 1254 (ADH AND NAD+), Method: PREINCUBATION) “active; positive”; (Strain/Indicator: TA1535, Metabolic Activation: RAT, LIVER, S-9, AROCLOR 1254 (NADP+), Method: PREINCUBATION) “active; positive”; (Strain/Indicator: TA1535, Metabolic Activation: RAT, LIVER, S-9, PCB, AROCLOR 1254, Method: STANDARD PLATE) “active; positive”.

Consider `CCCCCC(=O)N=c1sn(C(=O)CCCCC)c2ccc([N+](=O)[O-])cc12`, for which the mutagenic call (Strain/Indicator: TA100, Metabolic Activation: S-9, Method: STANDARD PLATE) is “active; positive”.

On to `Fc1cnc2cccc(F)c2c1`, for which the mutagenic call under setting [5] is “inactive; negative”.

As for `COc1cc(OC)c2c(c1)O[C@@H]1OC=C[C@H]21`, the mutagenic call runs as follows: under setting [1], “inactive; negative”; under setting [6], “active; positive”; under setting [2], “active; positive”; under setting [7], “active; positive”.

Turning to `[N-]=[N+]=NCCC(c1ccccc1)c1ccccc1`, the mutagenic call (Strain/Indicator: TA100, Metabolic Activation: RAT, LIVER, S-9, PCB, Method: PREINCUBATION) is “active; positive”.

For the compound `CC(=O)c1cccc(N=[N+]([O-])c2ccc(N)c(C(C)=O)c2C)c1C`, the mutagenic call was “inactive; negative” under setting [1]; “inactive; negative” (Strain/Indicator: TA98, Metabolic Activation: RAT, LIVER, S-9, PHENOBARBITAL AND 5,6-BENZOFLAVONE, Method: PREINCUBATION); “inactive; negative” under setting [2]; “inactive; negative” under setting [5].

Turning to `N#Cc1cccc2c([N+](=O)[O-])cccc12`, the mutagenic call runs as follows: under setting [3], “active; positive”; (Strain/Indicator: TA100, Metabolic Activation: S-9 MIX, Method: STANDARD PLATE) “active; positive”.

In the case of `O=C1NS(=O)(=O)c2ccccc21`, the mutagenic call was “inactive; negative” (Strain/Indicator: TA97A, Metabolic Activation: NONE, Method: PREINCUBATION); “inactive; negative” (Strain/Indicator: TA97A, Metabolic Activation: RAT, LIVER, S-9, AROCLOR 1254, Method: PREINCUBATION); “inactive; negative” (Strain/Indicator: TA102, Metabolic Activation: NONE, Method: PREINCUBATION); “inactive; negative” (Strain/Indicator: TA102, Metabolic Activation: RAT, LIVER, S-9, AROCLOR 1254, Method: PREINCUBATION).

`Brc1ccccc1-c1ccccc1`: the mutagenic call is “inactive; negative” (Strain/Indicator: TA98, Metabolic Activation: HAMSTER, LIVER, S-9, AROCLOR 1254, Method: PREINCUBATION); “inactive; negative” under setting [1]; “inactive; negative” under setting [6]; “inactive; negative” (Strain/Indicator: TA100, Metabolic Activation: HAMSTER, LIVER, S-9, AROCLOR 1254, Method: PREINCUBATION); “inactive; negative” under setting [2]; “inactive; negative” under setting [7]. The mutagenic call reads like this: (Strain/Indicator: TA1535, Metabolic Activation: HAMSTER, LIVER, S-9, AROCLOR 1254, Method: PREINCUBATION) “inactive; negative”; under setting [4], “inactive; negative”; (Strain/Indicator: TA1535, Metabolic Activation: RAT, LIVER, S-9, AROCLOR 1254, Method: PREINCUBATION) “inactive; negative”; (Strain/Indicator: TA1537, Metabolic Activation: HAMSTER, LIVER, S-9, AROCLOR 1254, Method: PREINCUBATION) “inactive; negative”; (Strain/Indicator: TA1537, Metabolic Activation: NONE, Method: PREINCUBATION) “inactive; negative”; (Strain/Indicator: TA1537, Metabolic Activation: RAT, LIVER, S-9, AROCLOR 1254, Method: PREINCUBATION) “inactive; negative”.

`Cc1cc2c(c3ccc4ccccc4c13)CCC2`: the mutagenic call under setting [3] is “inactive; negative” and the mutagenic call (Strain/Indicator: TA100, Metabolic Activation: RAT, LIVER, S-9, AROCLOR 1254, Method: STANDARD PLATE) is “inactive; negative”.
